Experimental data reported in patent US20230278995A1, “1,3,4-OXADIAZOLE DERIVATIVE COMPOUNDS AS HISTONE DEACETYLASE 6 INHIBITOR, AND THE PHARMACEUTICAL COMPOSITION COMPRISING THE SAME” (CHONG KUN DANG PHARMACEUTICAL CORP., priority 2020, published 2023).

Key:
[1] = target: T1, human recombinant HDAC1 (Homo sapiens, UniProt Q13547); assay: HDAC enzyme activity inhibition assay (HDAC Fluorimetric Drug Discovery Kit), HDAC1; format: biochemical; conditions: human recombinant HDAC1, Fluor de Lys-SIRT1 substrate, 30° C. 60 minutes
T1 construct: purchased Enzo Life Sciences, Inc. BML-SE456
Method: (§1) For the HDAC1 enzyme activity test, human recombinant HDAC1 (BML-SE456) was used as an enzyme source and Fluor de Lys©-SIRT1 (BNL-K1177) was used as a substrate. After dispensing 5-fold diluted compounds into a 96-well plate, 0.3 μg of enzyme and 10 μM substrate were added to each well of the plate and allowed to react at 30° C. for 60 minutes. Next, Fluor de Lys© Developer II (BML-K1176) was added and reacted for 30 minutes to complete the reaction, and then the fluorescence values (Ex 360, Em 460) were measured using a multi-plate reader (Flexstation 3, Molecular Device). The HDAC6 enzymes were tested using human recombinant HDAC6 (382180) from Calbiochem Inc., according to the same protocol as the HDAC1 enzyme activity test method. With respect to the final result values, respective IC50 values were calculated using GraphPad Prism 4.0 program (Table 2).

[2] = target: T2, human recombinant HDAC6 (Homo sapiens, UniProt Q9UBN7); assay: HDAC enzyme activity inhibition assay (HDAC Fluorimetric Drug Discovery Kit), HDAC6; format: biochemical; conditions: for HDAC6 selectivity (fold): HDAC1 vs HDAC6; for IC50: human recombinant HDAC6, same protocol as HDAC1
T2 construct: purchased Calbiochem Inc. 382180
T2 sequence (Q9UBN7 1-1215): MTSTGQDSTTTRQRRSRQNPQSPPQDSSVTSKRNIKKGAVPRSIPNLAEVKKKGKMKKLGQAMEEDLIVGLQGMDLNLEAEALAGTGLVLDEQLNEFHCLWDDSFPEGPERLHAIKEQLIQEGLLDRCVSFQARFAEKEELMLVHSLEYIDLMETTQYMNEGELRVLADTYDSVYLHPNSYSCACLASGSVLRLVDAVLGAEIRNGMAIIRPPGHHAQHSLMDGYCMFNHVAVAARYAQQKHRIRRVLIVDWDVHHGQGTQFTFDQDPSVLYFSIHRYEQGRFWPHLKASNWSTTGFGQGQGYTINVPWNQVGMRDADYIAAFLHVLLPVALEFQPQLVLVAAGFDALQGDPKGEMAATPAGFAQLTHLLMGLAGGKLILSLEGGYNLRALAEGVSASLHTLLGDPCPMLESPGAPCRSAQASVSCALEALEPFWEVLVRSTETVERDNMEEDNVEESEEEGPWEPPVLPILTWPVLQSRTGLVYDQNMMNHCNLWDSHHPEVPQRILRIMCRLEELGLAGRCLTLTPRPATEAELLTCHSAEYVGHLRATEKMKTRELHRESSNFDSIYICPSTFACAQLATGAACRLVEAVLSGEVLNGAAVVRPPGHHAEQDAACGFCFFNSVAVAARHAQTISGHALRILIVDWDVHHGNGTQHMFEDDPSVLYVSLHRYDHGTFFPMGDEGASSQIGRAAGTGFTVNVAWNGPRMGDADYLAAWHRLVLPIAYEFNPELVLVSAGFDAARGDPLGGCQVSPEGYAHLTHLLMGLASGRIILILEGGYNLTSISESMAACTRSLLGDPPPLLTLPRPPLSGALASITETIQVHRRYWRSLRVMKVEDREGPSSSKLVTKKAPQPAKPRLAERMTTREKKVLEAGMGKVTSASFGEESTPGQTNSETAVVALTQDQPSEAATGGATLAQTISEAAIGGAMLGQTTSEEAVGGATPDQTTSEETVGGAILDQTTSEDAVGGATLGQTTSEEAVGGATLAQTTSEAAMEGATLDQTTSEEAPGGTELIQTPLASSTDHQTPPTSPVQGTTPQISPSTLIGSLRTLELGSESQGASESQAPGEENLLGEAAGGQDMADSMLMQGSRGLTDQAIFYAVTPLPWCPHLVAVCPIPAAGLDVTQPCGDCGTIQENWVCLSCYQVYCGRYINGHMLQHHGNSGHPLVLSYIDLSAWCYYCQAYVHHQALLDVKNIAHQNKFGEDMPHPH
Method: as §1

T1 sequence (Q13547 whole entry): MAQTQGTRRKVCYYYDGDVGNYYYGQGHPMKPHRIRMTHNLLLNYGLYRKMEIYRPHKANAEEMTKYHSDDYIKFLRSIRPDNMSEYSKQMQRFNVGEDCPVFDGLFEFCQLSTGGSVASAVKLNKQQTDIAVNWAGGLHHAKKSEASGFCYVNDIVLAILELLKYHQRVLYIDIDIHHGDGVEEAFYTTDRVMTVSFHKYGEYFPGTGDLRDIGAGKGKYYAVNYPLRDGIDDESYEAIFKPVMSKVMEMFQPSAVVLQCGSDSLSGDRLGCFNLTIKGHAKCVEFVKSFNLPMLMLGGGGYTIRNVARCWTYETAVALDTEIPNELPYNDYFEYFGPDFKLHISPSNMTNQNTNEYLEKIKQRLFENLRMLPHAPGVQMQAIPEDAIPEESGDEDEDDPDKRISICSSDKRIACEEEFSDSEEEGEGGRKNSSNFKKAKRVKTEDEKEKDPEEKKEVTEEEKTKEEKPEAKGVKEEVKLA

| SMILES | IC50 [1] | HDAC6 selectivity (fold) [2] | IC50 [2] |
| --- | --- | --- | --- |
| O=C(C1CCC1)N1CC(F)(C(=O)N(Cc2ccc(-c3nnc(C(F)F)o3)cn2)c2ccccc2)C1 [Compound 3159, 1-(cyclobutanecarbonyl)-N-((5-(5-(difluoromethyl)-1,3,4-oxadiazol-2-yl)pyridin-2-yl)methyl)-3-fluoro-N-phenylazetidine-3-carboxamide] | > 50000 nM | 1,650 fold | 30.3 nM |
| O=C(N(Cc1ccc(-c2nnc(C(F)F)o2)cn1)c1cccc(F)c1)C1(F)CN(C2CCN(C3CCOC3)CC2)C1 (stereo not shown) [Compound 3408, N-((5-(5-(difluoromethyl)-1,3,4-oxadiazol-2-yl)pyridin-2-yl)methyl)-3-fluoro-N-(3-fluorophenyl)-1-(1-(tetrahydrofuran-3-yl)piperidin-4-yl)azetidine-3-carboxamide] | 37000 nM | 1,135 fold | 32.6 nM |
| O=C(N(Cc1ccc(-c2nnc(C(F)F)o2)cc1F)c1ccccc1)C1(F)CCN(C2CCC2)CC1 [Compound 2868, 1-cyclobutyl-N-(4-(5-(difluoromethyl)-1,3,4-oxadiazol-2-yl)-2-fluorobenzyl)-4-fluoro-N-phenylpiperidine-4-carboxamide] | > 20000 nM |  |  |
| CN1CC(F)(C(=O)N(Cc2ccc(-c3nnc(C(F)(F)F)o3)cn2)c2cccc(F)c2)C1 [Compound 6891, 3-fluoro-N-(3-fluorophenyl)-1-methyl-N-((5-(5-(trifluoromethyl)-1,3,4-oxadiazol-2-yl)pyridin-2-yl)methyl)azetidine-3-carboxamide] | > 50000 nM | 196 fold | 254 nM |
| CN(C)CCCC(=O)N1CC(F)(C(=O)N(Cc2ccc(-c3nnc(C(F)F)o3)cn2)c2cccc(F)c2)C1 [Compound 3098, N-((5-(5-(difluoromethyl)-1,3,4-oxadiazol-2-yl)pyridin-2-yl)methyl)-1-(4-(dimethylamino)butanoyl)-3-fluoro-N-(3-fluorophenyl)azetidine-3-carboxamide] | > 50000 nM | 1,992 fold | 25.1 nM |
| CCCN1CC(N2CCC(F)(C(=O)N(Cc3ccc(-c4nnc(C(F)F)o4)cn3)c3cccc(F)c3)CC2)C1 [Compound 3390, N-((5-(5-(difluoromethyl)-1,3,4-oxadiazol-2-yl)pyridin-2-yl)methyl)-4-fluoro-N-(3-fluorophenyl)-1-(1-propylazetidine-3-yl)piperidin-4-carboxamide] | 24200 nM | 1,015 fold | 23.8 nM |
| CC(C)N1CCC(F)(C(=O)N(Cc2ccc(-c3nnc(C(F)F)o3)cn2)c2ccccc2)CC1 [Compound 2952, N-((5-(5-(difluoromethyl)-1,3,4-oxadiazol-2-yl)pyridin-2-yl)methyl)-4-fluoro-1-isopropyl-N-phenylpiperidine-4-carboxamide] | > 50000 nM | 504 fold | 99.1 nM |
| CN1CC(F)(C(=O)N(Cc2ccc(-c3nnc(C(F)F)o3)cn2)c2ccccc2)C1 [Compound 2973, N-((5-(5-(difluoromethyl)-1,3,4-oxadiazol-2-yl)pyridin-2-yl)methyl)-3-fluoro-1-methyl-N-phenylazetidine-3-carboxamide] | > 50000 nM | 1,075 fold | 46.5 nM |
| O=C(N(Cc1ccc(-c2nnc(C(F)F)o2)cn1)c1cccc(F)c1)C1(F)CN(C2CCN(C3CCC3)CC2)C1 [Compound 3405, 1-(1-cyclobutylpiperidin-4-yl)-N-((5-(5-(difluoromethyl)-1,3,4-oxadiazol-2-yl)pyridin-2-yl)methyl)-3-fluoro-N-(3-fluorophenyl)azetidine-3-carboxamide] | 20400 nM | 771 fold | 26.5 nM |
| CN1CCC(F)(C(=O)N(Cc2ccc(-c3nnc(C(F)F)o3)cn2)c2cccc(F)c2)CC1 [Compound 2969, N-((5-(5-(difluoromethyl)-1,3,4-oxadiazol-2-yl)pyridin-2-yl)methyl)-4-fluoro-N-(3-fluorophenyl)-1-methylpiperidine-4-carboxamide] | > 50000 nM | 1,298 fold | 38.5 nM |
| CC(C)N1CC(F)(C(=O)N(Cc2ccc(-c3nnc(C(F)F)o3)cn2)c2ccccc2)C1 [Compound 2974, N-((5-(5-(difluoromethyl)-1,3,4-oxadiazol-2-yl)pyridin-2-yl)methyl)-3-fluoro-1-isopropyl-N-phenylazetidine-3-carboxamide] | > 50000 nM | 1,054 fold | 47.4 nM |
| O=C(N(Cc1ccc(-c2nnc(C(F)F)o2)cn1)c1cccc(F)c1)C1(F)CN(C2CCN(C3CCCC3)CC2)C1 [Compound 3407, 1-(1-cyclopentylpiperidin-4-yl)-N-((5-(5-(difluoromethyl)-1,3,4-oxadiazol-2-yl)pyridin-2-yl)methyl)-3-fluoro-N-(3-fluorophenyl)azetidine-3-carboxamide] | 48000 nM | 2,581 fold | 18.6 nM |
| O=C(N(Cc1ccc(-c2nnc(C(F)F)o2)cn1)c1cccc(F)c1)C1(F)CN(C2CCN(C3CCCCC3)CC2)C1 [Compound 3409, 1-(1-cyclohexylpiperidin-4-yl)-N-((5-(5-(difluoromethyl)-1,3,4-oxadiazol-2-yl)pyridin-2-yl)methyl)-3-fluoro-N-(3-fluorophenyl)azetidine-3-carboxamide] | > 50000 nM | 1,497 fold | 33.4 nM |
| CC(C)CN1CCC(N2CC(F)(C(=O)N(Cc3ccc(-c4nnc(C(F)F)o4)cn3)c3ccccc3)C2)CC1 [Compound 3114, N-((5-(5-(difluoromethyl)-1,3,4-oxadiazol-2-yl)pyridin-2-yl)methyl)-3-fluoro-1-(1-isobutylpiperidin-4-yl)-N-phenylazetidine-3-carboxamide] | > 50000 nM | 1,524 fold | 32.8 nM |
| CN1CCC(N2CC(F)(C(=O)N(Cc3ccc(-c4nnc(C(F)F)o4)cn3)c3ccccc3)C2)CC1 [Compound 3110, N-((5-(5-(difluoromethyl)-1,3,4-oxadiazol-2-yl)pyridin-2-yl)methyl)-3-fluoro-1-(1-methylpiperidin-4-yl)-N-phenylazetidine-3-carboxamide] | > 50000 nM | 1,170 fold | 42.7 nM |
| COCCC(=O)N1CC(F)(C(=O)N(Cc2ccc(-c3nnc(C(F)F)o3)cn2)c2cccc(F)c2)C1 [Compound 3167, N-((5-(5-(difluoromethyl)-1,3,4-oxadiazol-2-yl)pyridin-2-yl)methyl)-3-fluoro-N-(3-fluorophenyl)-1-(3-methoxypropanoyl)azetidine-3-carboxamide] | > 50000 nM |  |  |
| O=C(N(Cc1ccc(-c2nnc(C(F)F)o2)cn1)c1cccc(F)c1)C1(F)CN(C2CCCC2)C1 [Compound 3051, 1-cyclopentyl-N-((5-(5-(difluoromethyl)-1,3,4-oxadiazol-2-yl)pyridin-2-yl)methyl)-3-fluoro-N-(3-fluorophenyl)azetidine-3-carboxamide] | > 50000 nM |  |  |
| O=C(N1CCC(F)(C(=O)N(Cc2ccc(-c3nnc(C(F)F)o3)cc2F)c2ccccc2)CC1)C(F)(F)F [Compound 3441, N-(4-(5-(difluoromethyl)-1,3,4-oxadiazol-2-yl)-2-fluorobenzyl)-4-fluoro-N-phenyl-1-(2,2,2-trifluoroacetyl)piperidine-4-carboxamide] | > 50000 nM |  |  |
